Data on ten molecules can be found in ChEMBL document CHEMBL5154740, “Novel Aurora A and Protein Kinase C (α, β1, β2, and θ) Multitarget Inhibitors: Impact of Selenium Atoms on the Potency and Selectivity” (J Med Chem, 2022).

Assay [1] addresses Mitogen-activated protein kinase 8 (Homo sapiens) (UniProt P45983). Description: Inhibition of MAPK8 (unknown origin) at 50 nM by Z'LYTE screening method relative to control.
The target of assay [2] is Ribosomal protein S6 kinase beta-1 (Homo sapiens) (UniProt P23443). The assay is described as follows: Inhibition of p70S6K (unknown origin) at 50 nM by Z'LYTE screening method relative to control.
Sequence of Ribosomal protein S6 kinase beta-1 (Homo sapiens) (P23443 whole entry, looked up): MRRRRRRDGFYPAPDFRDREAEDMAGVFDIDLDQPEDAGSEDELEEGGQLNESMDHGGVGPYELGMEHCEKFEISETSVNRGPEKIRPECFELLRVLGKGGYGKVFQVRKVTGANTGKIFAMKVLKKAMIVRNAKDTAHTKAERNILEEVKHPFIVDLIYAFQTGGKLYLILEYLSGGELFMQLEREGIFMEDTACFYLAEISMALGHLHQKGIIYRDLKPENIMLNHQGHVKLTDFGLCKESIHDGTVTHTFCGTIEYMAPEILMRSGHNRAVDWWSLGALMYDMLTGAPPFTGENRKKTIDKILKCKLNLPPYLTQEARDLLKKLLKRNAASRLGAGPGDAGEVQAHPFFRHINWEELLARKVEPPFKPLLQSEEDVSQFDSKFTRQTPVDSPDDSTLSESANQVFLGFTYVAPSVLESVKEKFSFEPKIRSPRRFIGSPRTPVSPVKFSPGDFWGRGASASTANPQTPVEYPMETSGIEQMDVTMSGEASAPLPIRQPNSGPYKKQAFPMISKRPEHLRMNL
Assay [3] deals with Proto-oncogene tyrosine-protein kinase receptor Ret (Homo sapiens) (UniProt P07949). Description: Inhibition of RET (unknown origin) at 50 nM by Z'LYTE screening method relative to control.
Sequence of Proto-oncogene tyrosine-protein kinase receptor Ret (Homo sapiens) (P07949 whole entry): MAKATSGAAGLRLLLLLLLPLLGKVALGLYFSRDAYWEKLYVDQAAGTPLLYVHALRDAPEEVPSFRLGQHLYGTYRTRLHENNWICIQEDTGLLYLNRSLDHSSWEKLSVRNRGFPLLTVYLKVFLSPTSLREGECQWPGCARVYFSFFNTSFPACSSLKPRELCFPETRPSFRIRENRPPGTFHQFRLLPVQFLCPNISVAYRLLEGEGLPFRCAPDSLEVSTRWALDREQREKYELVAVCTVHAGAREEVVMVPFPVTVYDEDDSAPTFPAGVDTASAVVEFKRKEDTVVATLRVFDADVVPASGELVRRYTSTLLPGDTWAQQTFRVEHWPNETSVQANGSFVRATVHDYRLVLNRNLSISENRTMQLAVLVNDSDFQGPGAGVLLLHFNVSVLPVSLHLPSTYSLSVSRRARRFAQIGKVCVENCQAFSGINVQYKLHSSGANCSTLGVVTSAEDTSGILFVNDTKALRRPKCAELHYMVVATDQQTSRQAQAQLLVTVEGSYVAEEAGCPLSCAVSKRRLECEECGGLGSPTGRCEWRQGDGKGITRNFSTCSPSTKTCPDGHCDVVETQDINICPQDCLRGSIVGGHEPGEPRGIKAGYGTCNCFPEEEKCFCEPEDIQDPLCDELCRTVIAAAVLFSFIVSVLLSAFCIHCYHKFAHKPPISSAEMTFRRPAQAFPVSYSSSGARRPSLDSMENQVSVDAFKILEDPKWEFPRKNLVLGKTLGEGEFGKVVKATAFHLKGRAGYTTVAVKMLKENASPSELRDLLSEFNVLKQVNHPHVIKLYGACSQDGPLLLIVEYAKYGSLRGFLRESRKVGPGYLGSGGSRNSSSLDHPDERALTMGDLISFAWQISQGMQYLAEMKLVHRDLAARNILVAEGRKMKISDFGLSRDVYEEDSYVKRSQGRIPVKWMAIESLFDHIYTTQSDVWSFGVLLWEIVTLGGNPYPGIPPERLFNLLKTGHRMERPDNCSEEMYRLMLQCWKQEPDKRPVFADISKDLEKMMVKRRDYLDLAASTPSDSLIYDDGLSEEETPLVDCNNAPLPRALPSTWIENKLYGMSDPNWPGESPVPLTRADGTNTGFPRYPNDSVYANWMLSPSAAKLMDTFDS
For assay [4], the target named is Proto-oncogene tyrosine-protein kinase Src (Homo sapiens) (UniProt P12931). Description: Inhibition of SRC (unknown origin) at 50 nM by Z'LYTE screening method relative to control.
The next assay deals with MDA-MB-231. The assay is described as follows: Cytotoxicity against human MDA-MB-231/M cells assessed as reduction in cell viability incubated for 96 hrs by MTT assay. The class given is functional, cell-based. The conditions noted are these: MDA-MB-231, 96 h.
Assay [5] has as its target T1, Serine/threonine-protein kinase D3 (Homo sapiens) (UniProt O94806).
T1 sequence (whole entry): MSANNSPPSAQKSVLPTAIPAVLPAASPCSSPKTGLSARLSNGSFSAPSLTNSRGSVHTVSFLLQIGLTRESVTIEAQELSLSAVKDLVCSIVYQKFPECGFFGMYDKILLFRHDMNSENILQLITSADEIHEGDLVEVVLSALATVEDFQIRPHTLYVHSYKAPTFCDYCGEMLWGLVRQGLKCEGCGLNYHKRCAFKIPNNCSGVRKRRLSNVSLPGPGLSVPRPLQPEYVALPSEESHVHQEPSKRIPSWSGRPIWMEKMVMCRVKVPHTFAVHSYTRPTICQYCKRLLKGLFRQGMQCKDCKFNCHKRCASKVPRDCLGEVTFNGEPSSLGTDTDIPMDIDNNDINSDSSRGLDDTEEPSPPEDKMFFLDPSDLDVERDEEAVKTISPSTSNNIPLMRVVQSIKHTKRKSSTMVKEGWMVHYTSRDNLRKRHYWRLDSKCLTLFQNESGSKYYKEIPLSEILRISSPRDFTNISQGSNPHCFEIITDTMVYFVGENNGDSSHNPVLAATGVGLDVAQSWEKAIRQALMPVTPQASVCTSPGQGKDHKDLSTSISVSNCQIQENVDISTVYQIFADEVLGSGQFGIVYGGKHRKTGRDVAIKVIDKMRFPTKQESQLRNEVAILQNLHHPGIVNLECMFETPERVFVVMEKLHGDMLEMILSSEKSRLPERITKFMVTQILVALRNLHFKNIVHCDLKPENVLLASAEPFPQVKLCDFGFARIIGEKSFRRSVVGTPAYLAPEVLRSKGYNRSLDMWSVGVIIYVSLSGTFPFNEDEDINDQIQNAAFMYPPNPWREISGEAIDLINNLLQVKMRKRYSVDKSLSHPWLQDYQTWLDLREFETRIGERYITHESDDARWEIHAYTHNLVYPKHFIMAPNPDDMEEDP
Description: Inhibition of PKCnu (unknown origin) at 50 nM by Z'LYTE screening method relative to control.

Assay [6] deals with Vascular endothelial growth factor receptor 1 (Homo sapiens) (UniProt P17948). Description: Inhibition of FLT1/VEGFR1(unknown origin) at 50 nM by Z'LYTE screening method relative to control.
Sequence of Vascular endothelial growth factor receptor 1 (Homo sapiens) (P17948 whole entry): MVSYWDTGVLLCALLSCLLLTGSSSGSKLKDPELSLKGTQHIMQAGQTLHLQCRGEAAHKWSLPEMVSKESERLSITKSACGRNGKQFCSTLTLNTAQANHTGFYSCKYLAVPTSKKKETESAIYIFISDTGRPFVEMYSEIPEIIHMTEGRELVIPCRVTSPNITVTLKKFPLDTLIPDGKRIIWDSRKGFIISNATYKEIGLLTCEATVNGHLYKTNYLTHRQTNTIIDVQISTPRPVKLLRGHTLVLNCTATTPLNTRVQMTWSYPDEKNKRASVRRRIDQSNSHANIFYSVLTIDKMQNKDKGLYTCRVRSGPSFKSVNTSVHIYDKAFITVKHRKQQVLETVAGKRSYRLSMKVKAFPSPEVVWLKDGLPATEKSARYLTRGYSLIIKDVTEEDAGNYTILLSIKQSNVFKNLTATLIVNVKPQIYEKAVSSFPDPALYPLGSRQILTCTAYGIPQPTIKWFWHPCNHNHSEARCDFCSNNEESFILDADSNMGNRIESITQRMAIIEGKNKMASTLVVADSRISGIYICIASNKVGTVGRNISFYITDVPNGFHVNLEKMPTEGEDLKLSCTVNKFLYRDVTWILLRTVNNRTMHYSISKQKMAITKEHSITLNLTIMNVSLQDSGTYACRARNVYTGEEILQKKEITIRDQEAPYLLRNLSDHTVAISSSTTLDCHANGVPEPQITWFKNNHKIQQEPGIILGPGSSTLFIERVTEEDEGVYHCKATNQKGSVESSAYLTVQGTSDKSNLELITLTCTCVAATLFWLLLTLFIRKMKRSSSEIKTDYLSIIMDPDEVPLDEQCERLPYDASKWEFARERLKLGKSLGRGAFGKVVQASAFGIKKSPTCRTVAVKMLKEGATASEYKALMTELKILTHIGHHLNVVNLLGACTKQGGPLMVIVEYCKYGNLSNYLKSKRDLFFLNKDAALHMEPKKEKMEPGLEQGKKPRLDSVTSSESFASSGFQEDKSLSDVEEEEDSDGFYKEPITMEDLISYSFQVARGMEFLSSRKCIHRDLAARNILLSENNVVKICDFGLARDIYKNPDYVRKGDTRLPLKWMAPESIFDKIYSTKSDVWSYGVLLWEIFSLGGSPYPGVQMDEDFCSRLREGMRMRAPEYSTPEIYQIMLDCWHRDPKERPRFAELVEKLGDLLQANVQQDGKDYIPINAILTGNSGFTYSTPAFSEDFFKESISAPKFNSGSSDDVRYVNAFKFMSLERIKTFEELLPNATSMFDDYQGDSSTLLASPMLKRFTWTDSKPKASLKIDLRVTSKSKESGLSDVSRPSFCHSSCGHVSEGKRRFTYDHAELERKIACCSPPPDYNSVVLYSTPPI
Assay [7] deals with Protein kinase C eta type (Homo sapiens, UniProt P24723). The assay is described as follows: Inhibition of PKCeta (unknown origin) at 50 nM by Z'LYTE screening method relative to control.
Sequence of Protein kinase C eta type (P24723 whole entry): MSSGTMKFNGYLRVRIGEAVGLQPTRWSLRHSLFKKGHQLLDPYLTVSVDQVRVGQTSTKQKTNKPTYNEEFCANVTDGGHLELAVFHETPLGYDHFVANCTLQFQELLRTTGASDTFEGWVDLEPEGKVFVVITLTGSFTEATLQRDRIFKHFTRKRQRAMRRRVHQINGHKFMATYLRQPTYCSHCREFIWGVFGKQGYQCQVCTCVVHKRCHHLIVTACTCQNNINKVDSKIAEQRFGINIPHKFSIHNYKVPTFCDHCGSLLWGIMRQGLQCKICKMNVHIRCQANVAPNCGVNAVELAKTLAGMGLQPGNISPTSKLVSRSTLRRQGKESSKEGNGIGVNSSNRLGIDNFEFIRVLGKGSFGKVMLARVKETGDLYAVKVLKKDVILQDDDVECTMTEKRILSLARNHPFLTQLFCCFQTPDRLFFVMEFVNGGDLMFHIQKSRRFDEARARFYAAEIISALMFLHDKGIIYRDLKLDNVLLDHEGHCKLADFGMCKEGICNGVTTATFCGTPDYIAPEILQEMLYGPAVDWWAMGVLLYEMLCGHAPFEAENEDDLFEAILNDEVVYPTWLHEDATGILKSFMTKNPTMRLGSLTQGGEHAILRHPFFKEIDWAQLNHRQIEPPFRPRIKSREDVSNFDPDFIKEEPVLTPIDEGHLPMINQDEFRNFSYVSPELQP
Assay [8] addresses Protein kinase C theta type (Homo sapiens, UniProt Q04759). The assay is described as follows: Inhibition of PKCtheta (unknown origin) at 50 nM by Z'LYTE screening method relative to control.
For assay [9], the target named is Protein kinase C gamma type (Homo sapiens) (UniProt P05129). The assay is described as follows: Inhibition of PKC gamma (unknown origin) at 50 nM by Z'LYTE screening method relative to control.
Assay [10] addresses Ribosomal protein S6 kinase alpha-1 (Homo sapiens) (UniProt Q15418). The assay is described as follows: Inhibition of RPS6KA1 (unknown origin) at 50 nM by Z'LYTE screening method relative to control.
In assay [11] the target is T2, Serine/threonine-protein kinase TBK1 (Homo sapiens) (UniProt Q9UHD2).
T2 sequence (whole entry): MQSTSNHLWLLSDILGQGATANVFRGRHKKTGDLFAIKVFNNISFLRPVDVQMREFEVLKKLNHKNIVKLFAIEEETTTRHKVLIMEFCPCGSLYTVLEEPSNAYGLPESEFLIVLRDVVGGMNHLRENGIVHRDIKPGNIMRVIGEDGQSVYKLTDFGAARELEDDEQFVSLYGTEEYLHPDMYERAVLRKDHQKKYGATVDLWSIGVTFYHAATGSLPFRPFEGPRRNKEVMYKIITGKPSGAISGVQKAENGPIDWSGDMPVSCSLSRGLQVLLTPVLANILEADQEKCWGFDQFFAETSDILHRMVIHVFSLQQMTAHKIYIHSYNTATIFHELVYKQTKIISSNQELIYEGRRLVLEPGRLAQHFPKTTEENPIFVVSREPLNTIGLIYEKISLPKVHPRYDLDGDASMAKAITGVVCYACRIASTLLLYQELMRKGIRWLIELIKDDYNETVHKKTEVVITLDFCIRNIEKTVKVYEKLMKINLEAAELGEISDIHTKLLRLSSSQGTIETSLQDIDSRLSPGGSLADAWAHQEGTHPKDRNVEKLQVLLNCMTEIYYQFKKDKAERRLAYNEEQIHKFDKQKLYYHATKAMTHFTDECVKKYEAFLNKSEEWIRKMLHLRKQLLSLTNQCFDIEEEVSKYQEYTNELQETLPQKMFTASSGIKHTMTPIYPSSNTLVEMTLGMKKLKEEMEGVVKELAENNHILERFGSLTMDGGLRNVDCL
The assay is described as follows: Inhibition of TBK1 (unknown origin) at 50 nM by Z'LYTE screening method relative to control.

Assay [12] concerns the target 3-phosphoinositide-dependent protein kinase 1 (Homo sapiens) (UniProt O15530). Description: Inhibition of PDK1 (unknown origin) at 50 nM by Z'LYTE screening method relative to control.
In assay [13] the target is Glycogen synthase kinase-3 beta (Homo sapiens) (UniProt P49841). The assay is described as follows: Inhibition of GSK3b (unknown origin) at 50 nM by Z'LYTE screening method relative to control.
Assay [14] concerns the target Platelet-derived growth factor receptor alpha (Homo sapiens) (UniProt P16234). The assay is described as follows: Inhibition of PDGFRalpha (unknown origin) at 50 nM by Z'LYTE screening method relative to control.
Assay [15] addresses Tyrosine-protein kinase Lck (Homo sapiens) (UniProt P06239). Description: Inhibition of LCK (unknown origin) at 50 nM by Z'LYTE screening method relative to control.
In assay [16] the target is Serine/threonine-protein kinase B-raf (Homo sapiens) (UniProt P15056). Description: Inhibition of BRaf (unknown origin) at 50 nM by Z'LYTE screening method relative to control.

Sequence of Mitogen-activated protein kinase 8 (Homo sapiens) (P45983 whole entry): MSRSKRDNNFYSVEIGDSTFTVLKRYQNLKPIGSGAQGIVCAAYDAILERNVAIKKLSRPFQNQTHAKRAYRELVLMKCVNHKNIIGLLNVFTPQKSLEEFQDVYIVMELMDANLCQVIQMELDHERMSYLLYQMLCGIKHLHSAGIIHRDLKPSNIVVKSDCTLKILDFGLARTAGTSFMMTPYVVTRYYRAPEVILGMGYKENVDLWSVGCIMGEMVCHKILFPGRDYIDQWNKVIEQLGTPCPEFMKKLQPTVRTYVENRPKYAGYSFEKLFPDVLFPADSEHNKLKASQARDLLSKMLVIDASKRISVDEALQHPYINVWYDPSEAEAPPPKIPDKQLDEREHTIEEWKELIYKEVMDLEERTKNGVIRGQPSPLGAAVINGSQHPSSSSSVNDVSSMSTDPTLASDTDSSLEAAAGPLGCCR
Sequence of Protein kinase C theta type (Q04759 whole entry, looked up): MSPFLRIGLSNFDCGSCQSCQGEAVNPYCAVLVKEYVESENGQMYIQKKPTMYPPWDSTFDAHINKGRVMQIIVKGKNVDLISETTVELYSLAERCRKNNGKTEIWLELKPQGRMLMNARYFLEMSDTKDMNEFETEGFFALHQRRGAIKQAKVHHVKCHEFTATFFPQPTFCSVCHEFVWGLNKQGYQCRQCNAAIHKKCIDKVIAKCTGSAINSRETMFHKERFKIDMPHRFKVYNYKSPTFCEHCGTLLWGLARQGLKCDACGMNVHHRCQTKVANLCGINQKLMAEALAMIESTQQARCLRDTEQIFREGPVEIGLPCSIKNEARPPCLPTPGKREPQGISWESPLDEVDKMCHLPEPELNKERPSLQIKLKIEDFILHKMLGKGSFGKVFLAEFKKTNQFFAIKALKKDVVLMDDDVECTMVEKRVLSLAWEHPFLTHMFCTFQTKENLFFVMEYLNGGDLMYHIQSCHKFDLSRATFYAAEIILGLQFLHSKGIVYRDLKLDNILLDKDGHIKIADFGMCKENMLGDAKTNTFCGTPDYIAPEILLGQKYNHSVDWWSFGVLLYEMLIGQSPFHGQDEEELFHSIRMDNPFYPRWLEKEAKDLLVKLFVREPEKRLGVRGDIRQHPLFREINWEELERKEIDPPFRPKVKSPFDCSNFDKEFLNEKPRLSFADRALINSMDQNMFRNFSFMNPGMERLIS

As for `O=c1c2ccccc2[se]n1-c1nc(Nc2ccccc2)c2nc[nH]c2n1`, the inhibition was found to be 0% in assay [1]; 0% in assay [2]; 4% in assay [3]; 1% in [4]; 0% in [5]; 1% in assay [6]. The inhibition amounted to 0% in assay [7], 12% in assay [8], 0% in assay [9] and 0% in assay [10]. Besides, in the assay with MDA-MB-231, the IC50 came to 32.2 µM.

With `CCN(CC)CCCC(C)Nc1nc(-n2[se]c3ccccc3c2=O)nc2[nH]cnc12` (stereo unspecified), the inhibition in assay [1] is 0%; in [2] it was 0%; in assay [3] it was 1%; in assay [4], 0%; in assay [5] it was 11%; in assay [6], 1%. Moreover, the inhibition is 11% in [7], 83% in [8], 6% in [9] and 0% in assay [10]. For the same molecule, in the assay on MDA-MB-231, the IC50 came out at 16.8 µM.

With `O=C1c2ccccc2CN1c1nc(NC2CCCCC2)c2nc[nH]c2n1`, the inhibition in [11] is 0%; in [1], 0%; in assay [2], 1%; in assay [12], 0%; in assay [3], 10%; in assay [4], 5%. The inhibition in assay [13] came out at 7%; in [5], 0%; in [14] it was 11%; in assay [6], 0%; in assay [15] it was 7%; in [7], 0%. For the same molecule, the inhibition in assay [8] was determined as 0%; in assay [16], 7%; in assay [9] it was 0%; in assay [10], 2%. Also, the IC50 with MDA-MB-231 came out at 36.6 µM.

`CCCNc1nc(-n2[se]c3ccccc3c2=O)nc2[nH]cnc12`: the inhibition in assay [1] was 0%; in assay [2], 0%; in [3], 0%; in assay [4] it was 2%; in [5] it was 0%; in assay [6], 0%. The inhibition in [7] turned out to be 0%; in assay [8] it was 25%; in [9], 1%; in assay [10] it was 0%. In addition, in the assay on MDA-MB-231, the 50% inhibitory concentration (IC50) stood at 23.2 µM.

As to `C[C@@H]1[C@H]2C[C@@H](C[C@H]1Nc1nc(-n3[se]c4ccccc4c3=O)nc3[nH]cnc13)C2(C)C`, the inhibition in [1] turned out to be 0%; in assay [2] it was 2%; in assay [3], 2%; in assay [4], 0%; in assay [5], 1%; in [6] it was 1%. Besides, the inhibition worked out at 1% in assay [7], 16% in [8], 1% in assay [9] and 0% in [10]. Further, the IC50 with MDA-MB-231 turned out to be 47.7 µM.

As to `CCN(CC)CCCC(C)Nc1nc(N2Cc3ccccc3C2=O)nc2[nH]cnc12` (stereo unspecified), the inhibition is 0% in [1]; 1% in assay [2]; 2% in assay [3]; 0% in [4]; 2% in assay [5]; 2% in assay [6]. For the same molecule, the inhibition worked out at 2% in assay [7], 12% in [8], 1% in assay [9] and 0% in assay [10]. For the same molecule, the IC50 in the assay on MDA-MB-231 was determined as 22.1 µM.

As for `O=C1c2ccccc2CN1c1nc(NC2CCCC2)c2nc[nH]c2n1`, the inhibition turned out to be 0% in assay [1]; 1% in [2]; 2% in assay [3]; 0% in [4]; 4% in assay [5]; 1% in [6]. The inhibition in [7] turned out to be 4%; in assay [8], 7%; in assay [9], 2%; in assay [10] it was 1%. Also, in the assay on MDA-MB-231, the 50% inhibitory concentration (IC50) came to 24.7 µM.

Regarding `O=C1c2ccccc2CN1c1nc(N[C@H]2CC[Se]C2)c2nc[nH]c2n1`, the inhibition in [1] was 0%; in assay [2], 2%; in assay [3], 2%; in [4], 0%; in assay [5], 3%; in assay [6], 1%. In addition, the inhibition was determined as 3% in [7], 14% in assay [8], 3% in [9] and 0% in assay [10]. In addition, in the assay on MDA-MB-231, the concentration for half-maximal inhibition (IC50) came to 26.1 µM.

Regarding `O=c1c2ccccc2[se]n1-c1nc(N[C@H]2CCOC2)c2nc[nH]c2n1`, the inhibition in assay [1] was found to be 0%; in assay [2], 6%; in [3] it was 7%; in assay [4], 3%; in assay [5] it was 3%; in assay [6], 0%. In addition, the inhibition in assay [7] was 3%; in assay [8] it was 85%; in assay [9], 25%; in assay [10], 5%. Further, the IC50 in the assay with MDA-MB-231 is 2.3 µM.

In the case of `O=c1c2ccccc2[se]n1-c1nc(N[C@@H]2C[C@H]3CC[C@@H]2C3)c2nc[nH]c2n1`, the inhibition in assay [1] is 0%; in assay [2], 2%; in assay [3] it was 6%; in assay [4], 2%; in assay [5] it was 1%; in assay [6], 1%. Further, the inhibition in assay [7] came out at 1%; in [8], 15%; in assay [9], 0%; in [10] it was 0%. The concentration for half-maximal inhibition (IC50) with MDA-MB-231 was 32.4 µM.
